The target of this assay is T1, Nav1.7 channels (Homo sapiens, UniProt Q15858).
T1 construct: expressed in transfected cells; host or cells: HEK293
The experiment in a line: Whole-cell patch clamp on Nav1.7 overexpressing HEK293 cells. Format: cell-based. The following applies: for inhibition at 0.3 µM: HEK293, 300 nM, n=6, read-out: current inhibition. As to the method: The recording electrode used in the present example is a glass microelectrode, which is prepared as follows: The glass electrode blanks (outer diameter of 1.50 mm, inner diameter of 0.84 mm) are prepared into single-tube glass microelectrodes with tip diameters of 1-2 μm in four steps using the P-1000 Microelectrode Horizontal Puller for subsequent experiments. Be careful not to touch the heated platinum sheet in the center when pulling the electrode, and be careful not to touch the tip of the pulled electrode to prevent the tip from breaking. Since the tip of the glass microelectrode is highly susceptible to dust attraction, it is generally prepared for use now and should not be left overnight.
Glass microelectrodes are used as follows: rinse clean the glass microelectrodes before use; then put all the glass microelectrodes in a large beaker; add anhydrous ethanol so that the glass microelectrodes are completely immersed in anhydrous ethanol; and place the beaker in an ultrasonic cleaner with ultrasonic vibration for 30 min. Subsequently, pour out the anhydrous ethanol; rinse out the glass microelectrode with ultrapure water 3-4 times; use another small beaker to cover the microelectrode so as not to contaminate the electrode with dust; put the glass microelectrode into the oven for drying; and put the glass microelectrode into a clean box for spare use after drying.
In the patch clamp experiments, the measured sodium currents are corrected for leakage currents, and the primary data of the experiments are recorded using Clampfit 10.6, and the data acquisition is performed by the pCLAMP software. Three to five sweeps are selected for analysis, (sweep, which is a term used in patch clamp software and consists of a series of sampling points) in which the current is in a stable state before the addition of the polypeptide. The average value of the peak current is thus calculated as the control current amplitude. Then 3-5 sweeps in which the current is in a stable state after the addition of polypeptide are selected and analyzed, and the average value of the residual peak current is calculated as the residual current amplitude.
The electrical stimulation effect of polypeptides PPN-01 to PPN-16 on Nav1.7 overexpressing HEK293 cells is studied using the glass microelectrodes obtained from the above preparations and the whole-cell patch clamp techniques (n=1). In a voltage-clamp mode, the clamp voltage is kept at −90 mV; a square-wave stimulus depolarized from −90 mV to +40 mV with a duration of 30 ms is applied; the concentration of each dosing (polypeptide) is 300 nM; and validation is repeated for the six polypeptides that show a significant effect (n=2).
In a voltage-clamp mode, the clamp voltage is kept at −90 m V and a square-wave stimulus depolarized from −90 mV to +40 mV with a duration of 30 ms is applied.
2. The electrical stimulation effect of the polypeptide PPN-01 provided in Example 1 on Nav1.4, Nav1.5, Nav1.6, and Nav1.7 overexpressing HEK293 cells is studied using the glass microelectrodes obtained from the above preparations and employing the whole-cell patch clamp techniques (n=5). In a voltage-clamp mode, the clamp voltage is kept at −90 mV; a square-wave stimulus depolarized from −90 mV to +40 mV with a duration of 30 ms is applied; and a concentration of each dosing (polypeptide) is 300 nM.
3. After establishing whole-cell patch clamp configuration using glass microelectrodes filled with internal electrode solution and HEK293 cells overexpressing Nav1.4, Nav1.5, Nav1.6, or Nav1.7, the polypeptides provided in Example 1 are applied separately. In a voltage-clamp mode, the clamp voltage is kept at −90 m V and a square-wave stimulus depolarized from −90 m V to +40 m V with a duration of 30 ms is applied. […]

This note sets out measurements from patent US20260042802A1, “POLYPEPTIDE AND USE THEREOF” (priority 2024, published 2026).

Like-named read-outs stand apart in the source and are kept apart here. Where a SMILES comes first, the peptide text is derived from it. Bridges are numbered along the chain shown (N, C = ends).

T1 sequence (Q15858 whole entry): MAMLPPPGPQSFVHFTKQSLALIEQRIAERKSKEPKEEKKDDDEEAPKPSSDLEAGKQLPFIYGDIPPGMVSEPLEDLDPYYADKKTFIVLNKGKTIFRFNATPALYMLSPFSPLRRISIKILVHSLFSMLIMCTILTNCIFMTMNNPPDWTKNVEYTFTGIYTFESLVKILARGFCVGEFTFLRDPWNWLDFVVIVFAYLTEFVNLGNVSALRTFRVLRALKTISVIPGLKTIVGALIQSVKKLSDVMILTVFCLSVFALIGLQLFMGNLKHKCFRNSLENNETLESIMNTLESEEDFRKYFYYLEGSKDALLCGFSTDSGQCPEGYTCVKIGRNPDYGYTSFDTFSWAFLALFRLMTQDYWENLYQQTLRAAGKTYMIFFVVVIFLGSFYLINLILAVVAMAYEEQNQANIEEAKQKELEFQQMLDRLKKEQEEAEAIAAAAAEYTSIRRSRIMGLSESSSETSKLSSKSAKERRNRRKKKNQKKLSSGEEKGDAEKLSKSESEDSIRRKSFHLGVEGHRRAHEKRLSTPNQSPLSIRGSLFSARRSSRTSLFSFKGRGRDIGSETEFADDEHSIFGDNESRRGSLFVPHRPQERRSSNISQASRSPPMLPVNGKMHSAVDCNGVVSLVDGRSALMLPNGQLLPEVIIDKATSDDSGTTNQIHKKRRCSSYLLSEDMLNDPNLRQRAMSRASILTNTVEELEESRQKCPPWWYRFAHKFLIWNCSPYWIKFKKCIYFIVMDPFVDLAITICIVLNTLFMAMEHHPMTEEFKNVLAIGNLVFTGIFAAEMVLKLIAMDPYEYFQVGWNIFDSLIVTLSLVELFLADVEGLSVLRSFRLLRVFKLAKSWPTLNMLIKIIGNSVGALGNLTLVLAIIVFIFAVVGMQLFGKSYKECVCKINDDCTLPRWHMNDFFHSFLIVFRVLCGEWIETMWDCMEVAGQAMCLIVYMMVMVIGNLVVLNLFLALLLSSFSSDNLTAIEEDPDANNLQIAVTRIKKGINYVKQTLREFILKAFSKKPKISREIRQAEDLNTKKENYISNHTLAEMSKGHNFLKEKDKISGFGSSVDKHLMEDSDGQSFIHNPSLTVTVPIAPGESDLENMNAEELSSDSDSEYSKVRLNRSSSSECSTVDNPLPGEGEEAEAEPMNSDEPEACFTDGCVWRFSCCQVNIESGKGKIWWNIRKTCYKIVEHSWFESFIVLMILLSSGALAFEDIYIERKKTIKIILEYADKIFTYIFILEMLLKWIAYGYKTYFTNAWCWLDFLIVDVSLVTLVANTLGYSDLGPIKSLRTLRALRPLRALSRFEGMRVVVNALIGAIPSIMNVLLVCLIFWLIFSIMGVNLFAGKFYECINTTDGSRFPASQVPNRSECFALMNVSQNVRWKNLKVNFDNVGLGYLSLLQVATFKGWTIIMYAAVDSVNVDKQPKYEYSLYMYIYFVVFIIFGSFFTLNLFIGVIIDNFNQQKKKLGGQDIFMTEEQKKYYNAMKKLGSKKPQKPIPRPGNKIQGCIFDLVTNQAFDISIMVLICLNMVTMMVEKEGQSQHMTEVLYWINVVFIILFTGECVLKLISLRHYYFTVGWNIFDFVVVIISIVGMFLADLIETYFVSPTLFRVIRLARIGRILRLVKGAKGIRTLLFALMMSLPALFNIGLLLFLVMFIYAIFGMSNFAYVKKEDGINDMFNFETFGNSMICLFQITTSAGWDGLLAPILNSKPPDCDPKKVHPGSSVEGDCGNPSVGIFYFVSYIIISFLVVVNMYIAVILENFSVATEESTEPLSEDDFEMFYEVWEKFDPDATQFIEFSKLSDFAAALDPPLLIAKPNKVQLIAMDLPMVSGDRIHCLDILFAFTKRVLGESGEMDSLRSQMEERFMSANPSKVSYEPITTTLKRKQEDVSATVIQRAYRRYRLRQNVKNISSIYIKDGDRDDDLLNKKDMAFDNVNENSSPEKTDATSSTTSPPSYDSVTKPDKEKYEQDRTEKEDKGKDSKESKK

`CSCC[C@@H]1NC(=O)CNC(=O)[C@H](CCC(=O)O)NC(=O)[C@@H]2CSSC[C@H](NC(=O)[C@H](Cc3ccc(O)cc3)NC(C)=O)C(=O)N[C@@H](CCC(N)=O)C(=O)N[C@@H](CCCCN)C(=O)N[C@@H](Cc3ccccc3)C(=O)N[C@@H](CC(C)C)C(=O)N[C@@H](C)C(=O)N3CCC[C@H]3C(=O)N[C@H]3CSSC[C@H](NC(=O)[C@H](CCC(=O)O)NC1=O)C(=O)N[C@@H](CCCCN)C(=O)N[C@@H](CC(C)C)C(=O)N[C@@H](Cc1c[nH]c4ccccc14)C(=O)N[C@H](C(=O)N[C@@H](CCCCN)C(=O)N[C@@H](CCCCN)C(=O)N[C@@H](CCCCN)C(=O)N[C@@H](CC(C)C)C(=O)N[C@@H](Cc1c[nH]c4ccccc14)C(N)=O)CSSC[C@H](NC(=O)[C@H](CCCCN)NC(=O)[C@H](CCCNC(=N)N)NC(=O)[C@H](CCC(=O)O)NC(=O)[C@H](CO)NC(=O)[C@H](CC(=O)O)NC3=O)C(=O)N2` [PPN-01] (Ac-YCQKFLAPCDSERKCCEGMECKLWCKKKLW-NH2; disulfide 2-16, 9-21, 15-25): the “inhibition of Nav1.7 overexpressing HEK293 cells (current traces)” value (300 nM polypeptide, clamp −90 mV, depolarized to +40 mV, 30 ms, vs negative control, n=1 (n=2 for six polypeptides)) is “significant inhibition”. The “inhibition effect on Nav1.7 overexpressing HEK293 cells” value (300 nM, −90 mV to +40 mV, 30 ms, n=5) is listed as “significant inhibition effect”. Moreover, the inhibition at 0.3 µM was determined as 89.6% (membrane potential +40 mV), 73.6% (membrane potential −30 mV) and 43.6% (membrane potential −40 mV). Besides, the Hill coefficient (concentration-response of Nav1.7 peak current inhibition) was found to be 1.18.
